In US11000033B2, “Ketone or oxime compound, and herbicide” (NISSAN CHEMICAL CORPORATION, priority 2014, dated 2021):

Assays:
Format in all cases: in vivo
Monochoria vaginalis = assay: Test Example 2: herbicidal activity, application during weed generation in submerged conditions (symbol C); settings: Table 23; application herbicide amount 320 g/ha; grade 0-5 by criteria of Test Example 1
How it was run: (§1)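 Steps: fill pots with alluvial soil; add water to 4 cm depth; co-sow the three weeds; grow at 25° C. to 30° C. under glass; at 1–2 leaves, dose the floodwater with diluted emulsion; rate damage visually after 3 weeks.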

[1] = system: Echinochloa crus-galli var. crus-galli; assay: Test Example 3: herbicidal effect by foliage application, Wagner pot (symbol H); settings: application herbicide amount 320 g/ha
How it was run: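 Post-emergence, paddy-type test: seedlings 14 d old in shallow-flooded (0.1–0.5 cm) alluvial soil, 25–30 °C greenhouse. Emulsion diluted to target rate, sprayed on leaves. Read-out: visual effect on each species at 3 weeks, per set criteria.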

wheat = assay: Test Example 5: effect on crop by foliage application, plastic box (symbol e); settings: 320 g/ha, 3 weeks after application
How it was run: (§2)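 Box culture: sterile diluvial soil, seeds spot-sown, ~1.5 cm cover, raised under glass at 25–30° C.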

Amaranthus retroflexus = assay: Test Example 4: herbicidal effect by soil treatment (symbol N); settings: for N: Amaranthus retroflexus, herbicidal effect grade: 320 g/ha; for N (Amaranthus retroflexus) herbicidal effect grade: application herbicide amount 320 g/ha
How it was run: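 Seeds were sown in sterilized diluvial soil, covered with about 1.5 cm of soil, and the soil surface was sprayed with a water-diluted emulsion of the compound at a predetermined rate. Plants grew in a greenhouse at 25° C. to 30° C.; effects were scored visually 3 weeks after application.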

Scirpus juncoides [2] = assay: Test Example 1: herbicidal activity, application before weed generation in submerged conditions (symbol B); settings: application herbicide amount 320 g/ha
How it was run: (§3)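 Weeds are sown into submerged alluvial soil alongside transplanted 2.5-leaf rice, and the compound, as an emulsion diluted to a set rate, is applied onto the water before emergence. Rating on the 0–5 herbicidal-ratio scale follows 3 weeks of greenhouse growth at 25–30 °C.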

rapeseed = assay: Test Example 4: effect on crop by soil treatment (symbol g); settings: for g: rapeseed, effect grade on crop: 320 g/ha; for g (rapeseed) effect on crop grade: application herbicide amount 320 g/ha
How it was run: (§4)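 Greenhouse culture at 25° C. to 30° C. followed sowing of seed in spots on sterilized diluvial soil with a soil cover close to 1.5 cm thick.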

Avena fatua = assay: Test Example 5: herbicidal effect by foliage application, plastic box (symbol I); settings: 320 g/ha, 3 weeks after application
How it was run: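 Sowing in sterilized diluvial soil, 14 days' greenhouse growth at 25° C. to 30° C., then uniform small-sprayer foliar application of aqueous emulsion dilution; plants scored three weeks afterwards.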

soybean [3] = assay: Test Example 5: effect on crop by foliage application, plastic box (symbol d); settings: 320 g/ha, 3 weeks after application
How it was run: as §2

rice plant = assay: Test Example 5: effect on crop by foliage application, plastic box (symbol b); settings: 320 g/ha, 3 weeks after application
How it was run: as §2

soybean [4] = assay: Test Example 4: effect on crop by soil treatment (symbol d); settings: for d: soybean, effect grade on crop: 320 g/ha; for d (soybean) effect on crop grade: application herbicide amount 320 g/ha
How it was run: as §4

Scirpus juncoides [5] = assay: Test Example 2: herbicidal activity, application during weed generation in submerged conditions (symbol B); settings: Table 23; application herbicide amount 320 g/ha; grade 0-5 by criteria of Test Example 1
How it was run: as §1

[6] = system: Echinochloa oryzacola Vasing.; assay: Test Example 1: herbicidal activity, application before weed generation in submerged conditions (symbol A); settings: application herbicide amount 320 g/ha
How it was run: as §3

`CON=C(C)CC1CC(OC(=O)COCC(F)(F)F)=C(c2c(C)cc(C)cc2C)C1=O` (stereo not drawn) [1-092] was tested, and the “Herbicidal effect grade, C: Monochoria vaginalis” value (“Herbicidal effect grade, C” for short) (Monochoria vaginalis) was 0 (Herbicidal ratio of 5% or lower (almost no effect)), the “herbicidal effect on H (Echinochloa crus-galli var. crus-galli), grade 0-5” value (“herbicidal effect on H” for short) [1] was 5 (Herbicidal ratio of 90% or more (almost completely withered)) and the “e: wheat, effect on crop (criteria 0-5)” value (wheat) was 4 (Herbicidal ratio of 70% or higher and lower than 90%). The “N: Amaranthus retroflexus, herbicidal effect grade” value (Amaranthus retroflexus) was 3 (Herbicidal ratio of 40% or higher and lower than 70%), the “Herbicidal effect grade, B: Scirpus juncoides” value (“Herbicidal effect grade, B” for short) (Scirpus juncoides [2]) was 5 (Herbicidal ratio of 90% or more (almost completely withered)) and the “g: rapeseed, effect grade on crop” value (rapeseed) was 4 (Herbicidal ratio of 70% or higher and lower than 90%). The “I: Avena fatua, herbicidal effect (criteria 0-5)” value (Avena fatua) was 2 (Herbicidal ratio of 20% or higher and lower than 40%), the “d: soybean, effect on crop (criteria 0-5)” value (soybean [3]) was 0 (Herbicidal ratio of 5% or lower (almost no effect)) and the “b: directly sowed rice plant, effect on crop (criteria 0-5)” value (rice plant) was 5 (Herbicidal ratio of 90% or more (almost completely withered)). The “d: soybean, effect grade on crop” value (soybean [4]) was 0 (Herbicidal ratio of 5% or lower (almost no effect)), the “Herbicidal effect grade, B” value (Scirpus juncoides [5]) was 4 (Herbicidal ratio of 70% or higher and lower than 90%) and the “Herbicidal effect grade, A: Echinochloa oryzacola Vasing.” value [6] was 5 (Herbicidal ratio of 90% or more (almost completely withered)).
In the case of `CON=C(CC1CC(O)=C(c2c(C)cc(C)cc2C)C1=O)C1CCCCC1` (stereo not drawn) [1-085], the “Herbicidal effect grade, C” value (Monochoria vaginalis) is reported as 0 (Herbicidal ratio of 5% or lower (almost no effect)), the “herbicidal effect on H” value [1] is reported as 5 (Herbicidal ratio of 90% or more (almost completely withered)) and the “e: wheat, effect on crop (criteria 0-5)” value (wheat) is reported as 3 (Herbicidal ratio of 40% or higher and lower than 70%). The “N: Amaranthus retroflexus, herbicidal effect grade” value (Amaranthus retroflexus) was 0 (Herbicidal ratio of 5% or lower (almost no effect)), the “Herbicidal effect grade, B” value (Scirpus juncoides [2]) was 0 (Herbicidal ratio of 5% or lower (almost no effect)) and the “g: rapeseed, effect grade on crop” value (rapeseed) was 0 (Herbicidal ratio of 5% or lower (almost no effect)). The “I: Avena fatua, herbicidal effect (criteria 0-5)” value (Avena fatua) was 3 (Herbicidal ratio of 40% or higher and lower than 70%), the “d: soybean, effect on crop (criteria 0-5)” value (soybean [3]) was 0 (Herbicidal ratio of 5% or lower (almost no effect)) and the “b: directly sowed rice plant, effect on crop (criteria 0-5)” value (rice plant) was 4 (Herbicidal ratio of 70% or higher and lower than 90%). For the same compound, the “d: soybean, effect grade on crop” value (soybean [4]) was 0 (Herbicidal ratio of 5% or lower (almost no effect)), the “Herbicidal effect grade, B” value (Scirpus juncoides [5]) was 0 (Herbicidal ratio of 5% or lower (almost no effect)) and the “Herbicidal effect grade, A: Echinochloa oryzacola Vasing.” value [6] was 4 (Herbicidal ratio of 70% or higher and lower than 90%).
With `CON=C(C)CC1CC(OC(=O)COc2ccccc2)=C(c2c(C)cc(C)cc2C)C1=O` (stereo not drawn) [1-043] the “Herbicidal effect grade, C” value (Monochoria vaginalis) was 3 (Herbicidal ratio of 40% or higher and lower than 70%), the “herbicidal effect on H” value [1] was 5 (Herbicidal ratio of 90% or more (almost completely withered)) and the “e: wheat, effect on crop grade” value (wheat) was 5 (Herbicidal ratio of 90% or more (almost completely withered)). The “N (Amaranthus retroflexus) herbicidal effect grade” value (Amaranthus retroflexus) was 4 (Herbicidal ratio of 70% or higher and lower than 90%), the “Herbicidal effect grade, B” value (Scirpus juncoides [2]) was 5 (Herbicidal ratio of 90% or more (almost completely withered)) and the “g (rapeseed) effect on crop grade” value (rapeseed) was 5 (Herbicidal ratio of 90% or more (almost completely withered)). The “I: Avena fatua, herbicidal effect grade” value (Avena fatua) was 5 (Herbicidal ratio of 90% or more (almost completely withered)), the “d: soybean, effect on crop grade” value (soybean [3]) was 4 (Herbicidal ratio of 70% or higher and lower than 90%) and the “b: directly sowed rice plant, effect on crop grade” value (rice plant) was 5 (Herbicidal ratio of 90% or more (almost completely withered)). For the same compound, the “d (soybean) effect on crop grade” value (soybean [4]) was 1 (Herbicidal ratio of 5% or higher and lower than 20%), the “Herbicidal effect grade, B” value (Scirpus juncoides [5]) was 5 (Herbicidal ratio of 90% or more (almost completely withered)) and the “Herbicidal effect grade, A: Echinochloa oryzacola Vasing.” value [6] was 5 (Herbicidal ratio of 90% or more (almost completely withered)).
For `CON=C(CC1CC(O)=C(c2c(C)cc(C)cc2C)C1=O)C(C)C` (stereo not drawn) [1-048], the “Herbicidal effect grade, C” value (Monochoria vaginalis) was 2 (Herbicidal ratio of 20% or higher and lower than 40%), the “herbicidal effect on H” value [1] was 5 (Herbicidal ratio of 90% or more (almost completely withered)) and the “e: wheat, effect on crop grade” value (wheat) was 0 (Herbicidal ratio of 5% or lower (almost no effect)). For the same compound, the “N (Amaranthus retroflexus) herbicidal effect grade” value (Amaranthus retroflexus) was 1 (Herbicidal ratio of 5% or higher and lower than 20%), the “Herbicidal effect grade, B” value (Scirpus juncoides [2]) was 4 (Herbicidal ratio of 70% or higher and lower than 90%) and the “g (rapeseed) effect on crop grade” value (rapeseed) was 0 (Herbicidal ratio of 5% or lower (almost no effect)). For the same compound, the “I: Avena fatua, herbicidal effect grade” value (Avena fatua) was 4 (Herbicidal ratio of 70% or higher and lower than 90%), the “d: soybean, effect on crop grade” value (soybean [3]) was 0 (Herbicidal ratio of 5% or lower (almost no effect)) and the “b: directly sowed rice plant, effect on crop grade” value (rice plant) was 5 (Herbicidal ratio of 90% or more (almost completely withered)). The “d (soybean) effect on crop grade” value (soybean [4]) was 0 (Herbicidal ratio of 5% or lower (almost no effect)), the “Herbicidal effect grade, B” value (Scirpus juncoides [5]) was 4 (Herbicidal ratio of 70% or higher and lower than 90%) and the “Herbicidal effect grade, A: Echinochloa oryzacola Vasing.” value [6] was 5 (Herbicidal ratio of 90% or more (almost completely withered)).
For `CC(CC1CC(O)=C(c2c(C)cc(C)cc2C)C1=O)=NOCC(F)(F)F` (stereo not drawn) [1-028], the “Herbicidal effect grade, C” value (Monochoria vaginalis) was 0 (Herbicidal ratio of 5% or lower (almost no effect)), the “herbicidal effect on H” value [1] was 5 (Herbicidal ratio of 90% or more (almost completely withered)) and the “e: wheat, effect on crop grade” value (wheat) was 3 (Herbicidal ratio of 40% or higher and lower than 70%). The “N (Amaranthus retroflexus) herbicidal effect grade” value (Amaranthus retroflexus) was 3 (Herbicidal ratio of 40% or higher and lower than 70%), the “Herbicidal effect grade, B” value (Scirpus juncoides [2]) was 5 (Herbicidal ratio of 90% or more (almost completely withered)) and the “g (rapeseed) effect on crop grade” value (rapeseed) was 4 (Herbicidal ratio of 70% or higher and lower than 90%). For the same compound, the “I: Avena fatua, herbicidal effect grade” value (Avena fatua) was 4 (Herbicidal ratio of 70% or higher and lower than 90%), the “d: soybean, effect on crop grade” value (soybean [3]) was 2 (Herbicidal ratio of 20% or higher and lower than 40%) and the “b: directly sowed rice plant, effect on crop grade” value (rice plant) was 5 (Herbicidal ratio of 90% or more (almost completely withered)). The “d (soybean) effect on crop grade” value (soybean [4]) was 0 (Herbicidal ratio of 5% or lower (almost no effect)), the “Herbicidal effect grade, B” value (Scirpus juncoides [5]) was 4 (Herbicidal ratio of 70% or higher and lower than 90%) and the “Herbicidal effect grade, A: Echinochloa oryzacola Vasing.” value [6] was 5 (Herbicidal ratio of 90% or more (almost completely withered)).
